Test results published in patent publication US20090155241A1, “Prophylactic/therapeutic agent for cancer” (JAPANESE FOUNDATION FOR CANCER RESEARCH, priority 2005, published 2009).

What was measured:
[1] = tested on: p53-mutated cancer cells (NCI-H23, DMS114, HCT-15, KM-12, SF268, U251); experiment: Cell growth inhibition, CellTiter 96 AQueous One, p53-mutated cancer cells; type: cell-based, human; conditions: 4 or 8 μM, 48 hours, RPMI-1640; FIG. 3A
Procedure: (§1) NCI-H23, DMS114, HCT-15, KM-12, SF268 and U251 cells, which are p53-mutated cancer cells, were incubated in RPMI-1640 medium containing 4 or 8 μM Triacsin c for 48 hours. On the other hand, human normal cell lines TIG108, TIG109, ASF4-1, CCD33Co and TIG114 cells were incubated in MEM containing 4 or 8 μM Triacsin c for 48 hours. After completion of the incubation, 20 μl of CellTiter 96AQueous One Solution Cell Proliferation Assay Kit (manufactured by Promega Corp.) was added and reacted for an hour. Absorbance was then measured at 490 nm.
(§2) The results are shown by % based on absorbance in the absence of Triacsin c.

[2] = tested on: human normal cell lines TIG108, TIG109, ASF4-1, CCD33Co and TIG114; experiment: Cell growth inhibition, CellTiter 96 AQueous One, human normal cell lines; type: cell-based; conditions: 4 or 8 μM, 48 hours, MEM; FIG. 3A
Procedure: as §1, §2

p53-mutated cancer cells = experiment: Caspase activation as index of apoptosis induction (Ac-DEVD-MCA substrate); type: cell-based, human; conditions: 8 μM, 30 hours, RPMI medium; FIG. 3B
Procedure: (§3) In order to examine if the cell growth inhibitory effect by Triacsin c was induced by apoptosis, the caspase activation was measured as an index of the apoptosis induction using acetyl-Asp-Glu-Val-Asp-(4-methylcoumaryl-7-amide) as a substrate.

ACS = experiment: Intracellular ACS activity in cell extract ([14C]-palmitic acid); type: cell-based, human; conditions: 4 μM, 24 hours, FIG. 4B
Procedure: The ACS activity was assayed by the method of Banis, et al. (Biochem. Biophys. Acta, 348, 210-220, 1974). To the cell extract (100 μl) obtained by homogenization, 1.2 μmol magnesium chloride, 5 μmol ATP, 3 μmol potassium fluoride, 0.1 μmol coenzyme A, 3 μmol 2-mercaptoethanol, 0.03 μmol palmitic acid and 0.1 μCi [^14C]-palmitic acid (150 μl) were added and the mixture was reacted at 37° C. for 5 minutes. After the reaction was terminated by adding 2.25 ml of isopropanol-heptane-1M sulfuric acid (40:10:1), 1.5 ml of heptane and 1 ml of water were added and the upper layer was removed. The lower layer containing [^14C]-palmitoyl CoA produced after the reaction was washed twice with 2 ml of heptane-8 mg of palmitic acid, and the ^14C level was measured using a liquid scintillation counter.
The ACS activities of SF268/mock cells and SF268/ACS5 cells were assayed by the method described in EXAMPLE 4(3).

SF268 cells = experiment: Cell growth inhibition in SF268 cells; type: cell-based, human; conditions: about 4 μM (1 to 4 μM), treated for 48 hours; FIG. 4C
Procedure: as §1
(§4) In addition, the caspase activation as an index of apoptosis was examined.

SF268/ACS5 cells [3] = experiment: Cell growth inhibition in ACS5-expressing SF268 cells; type: cell-based, human; conditions: FIG. 4C
Excerpt: To examine if the p53-mutated cancer cell-selective apoptosis by Triacsin c was induced by ACS activity inhibition, cells stably expressing Triacsin c-resistant ACS isozyme ACS5 were established as follows. The retroviral vector pHa-ACS5—FLAG-IRES-DHFR constructed in EXAMPLE 4(1) and empty vector pHa-IRES-DHFR were introduced into mouse fibroblast PA317 using mammalian transfection kit (Stratagene) to give viral stock. The resulting viral stock was further infected into human glioma SF268 cells and selected with 100 ng/ml of methotrexate as a selective agent to give the stably expressing strain SF268/ACS5 and SF268/mock for control. The cell extract from each cell was analyzed by western blot using anti-FLAG-M2 antibody (Sigma) (and anti-tubulin antibody (Sigma) for control).
as §4

SF268/ACS5 cells [4] = experiment: Caspase activation in ACS5-expressing SF268 cells; type: cell-based, human; conditions: with expression of ACS5; FIG. 4D
Procedure: as §3, §4

[5] = tested on: Human lung cancer NCI-H23; experiment: Growth inhibitory effect in nude mice bearing p53-mutated cancer; type: in vivo, BALB/cAJcl-nu nude mice
Procedure: In order to examine the p53-mutated cancer growth inhibitory effect by apoptosis induction via Triacsin c-induced ACS activity inhibition in vivo, a test for administering p53-mutated cancer-bearing nude mice was performed. Human lung cancer NCI-H23 was used as the p53-mutated cancer cell line and implanted subcutaneously into BALB/cAJcl-nu nude mice (9 weeks old). On day 0 when the tumor volume reached 50-150 mm^3, 40 μl (30 mg/kg/day) of Triacsin c was administered by intratumoral injection (n=5). Triacsin c was administered for 3 consecutive days on days 0, 1 and 2. For control group, 40 μl of saline was administered by the same dosing schedule (n=5). For evaluation of tumor volume, the length (L) and width (W) of the tumor were measured, and the tumor volume (TV) was calculated as TV=L×W×W/2. Relative tumor volume was determined as the value when a mean value of the tumor volume on day 0 in control group was made 1. Tumor growth was measured for 21 days after drug administration. Statistical significance was determined with a Student t test.

[6] = tested on: fatty acid metabolizing enzyme ACS; conditions: Biochem. Biophys. Acta, 921, 595-598, 1987; cited from earlier work
[7] = tested on: SF268/ACS5 and SF268/mock cells; experiment: Cell viability after anticancer drug treatment, SF268/mock and SF268/ACS5; type: cell-based, human; conditions: 48 hours; etoposide 1, 3 or 10 µg/ml, 5-fluorouracil 30, 100 or 300 µg/ml; FIG. 6A
Procedure: Changes of anticancer drug sensitivity in cancer cells by expression of ACS5 were examined. After 1, 3 or 10 µg/ml of etoposide or 30, 100 or 300 µg/ml of 5-fluorouracil was added to SF268/ACS5 established in EXAMPLE 4(2), which are cells capable of stably and highly expressing ACS5, and SF268/mock cells for control, incubation was performed in RPMI-1640 medium for 48 hours. After adding 20 μl of CellTiter 96AQueous One Solution Cell Proliferation Assay Kit (manufactured by Promega) and reacting for an hour, the cell viability was determined by measuring absorbance at 490 nm and expressed by % based on the value when no etoposide was added or no 5-fluorouracil was added (FIG. 6A).

| SMILES | cell growth inhibitory effect [1] | cell growth inhibitory effect [2] | caspase activation (p53-mutated cancer cells) | intracellular ACS activity (ACS; SF268/ACS5 cells (ACS5-overexpressed)) | intracellular ACS activity (ACS; SF268/mock cells) | cell growth (SF268 cells) | Triacsin c-induced cell growth inhibitory effect (SF268/ACS5 cells [3]) | caspase activation (SF268/ACS5 cells [4]) | tumor volume versus control group ([5]; 30 mg/kg/day intratumoral injection, days 0, 1 and 2, measured for 21 days, p<0.05, FIG. 5) | weight loss ([5]; cancer-bearing nude mice, 30 mg/kg/day intratumoral, 3 consecutive days) | inhibition activity against ACS [6] | cell viability in SF268/ACS5 as compared to SF268/mock [7] | growth inhibitory effect (cell viability) [7] |
| --- | --- | --- | --- | --- | --- | --- | --- | --- | --- | --- | --- | --- | --- |
| CCCC=CCC=CC=CC=NN=NO [Triacsin c, 1-Hydroxy-3-undeca-2,4,7-triene-1-ylidenetriaz-1-ene] | potent cell growth inhibitory effect | no cell growth inhibitory effect was observed | strong activation of caspase | any significant reduction of the ACS activity was not observed | markedly reduced | strongly inhibited the growth | almost completely cancelled | strongly counteracted | significant tumor regression effect | any weight loss was not observed | specific inhibition activity | – | – |
| COc1cc([C@@H]2c3cc4c(cc3[C@@H](O[C@@H]3O[C@@H]5CO[C@@H](C)O[C@H]5[C@H](O)[C@H]3O)[C@H]3COC(=O)[C@H]23)OCO4)cc(OC)c1O [etoposide] | – | – | – | – | – | – | – | – | – | – | – | significantly high cell viability | growth inhibitory effect was produced concentration-dependently |
| O=c1[nH]cc(F)c(=O)[nH]1 [5-fluorouracil] | – | – | – | – | – | – | – | – | – | – | – | significantly high cell viability | growth inhibitory effect was produced concentration-dependently |
